Where “and” joins values, the source holds several entries; their conditions need not be identical. Identical values can stand only once.
Test system: collagen-induced arthritis
Assay: Collagen-induced arthritis (CIA) model in rats: body weight, paw volume, clinical scores, clinical observations; for Average detailed clinical score, left hind limb: key of the grades not given here; for Average detailed clinical score, right hind limb: key of the grades not given here; for Detailed Clinical Scores, left forelimb: key of the grades not given here; for Detailed Clinical Scores, left hind limb: key of the grades not given here; for Detailed Clinical Scores, right forelimb: key of the grades not given here; for Detailed Clinical Scores, right hind limb: key of the grades not given here; for Detailed Clinical Scores, score: key of the grades not given here; for Detailed Clinical Scores: left forelimb: key of the grades not given here; for Detailed Clinical Scores: left hind limb: key of the grades not given here; for Detailed Clinical Scores: right forelimb: key of the grades not given here; for Detailed Clinical Scores: right hind limb: key of the grades not given here; for Detailed Clinical Scores: score: key of the grades not given here; for Mean overall clinical score ± SD: key of the grades not given here; for overall clinical score: key of the grades not given here
Details: for Average detailed clinical score, right hind limb / Average detailed clinical score, score / Mean overall clinical score ± SD / Overall clinical score / Average detailed clinical score, left forelimb / Average detailed clinical score, left hind limb / Average detailed clinical score, right forelimb / Detailed Clinical Scores, left forelimb / Detailed Clinical Scores, left hind limb / Detailed Clinical Scores, right forelimb / Detailed Clinical Scores, right hind limb / Detailed Clinical Scores, score / Detailed Clinical Scores: left forelimb / Detailed Clinical Scores: left hind limb / Detailed Clinical Scores: right forelimb / Detailed Clinical Scores: right hind limb / Detailed Clinical Scores: score: CIA rats; for Overall clinical score: individual animals #1-8; for Mean animal paw volume ± SD: group mean; for Detailed Clinical Scores, left forelimb / Detailed Clinical Scores, left hind limb / Detailed Clinical Scores, right forelimb / Detailed Clinical Scores, right hind limb / Detailed Clinical Scores, score / Detailed Clinical Scores: left forelimb / Detailed Clinical Scores: left hind limb / Detailed Clinical Scores: right forelimb / Detailed Clinical Scores: right hind limb / Detailed Clinical Scores: score: individual animals ID 1-8; for Animal paw volume percent change: individual animals

For `CNC(=O)c1[nH]c(C(=O)NC2CCC2)cc1O[C@@H](C)c1ccccc1` (stereo in doubt) [Example 101, N^5-cyclobutyl-N^2-methyl-3-(1-phenylethoxy)-1H-pyrrole-2,5-dicarboxamide], the “Average detailed clinical score, right hind limb” value (Day 12, 10 mg/kg) was 0.25, the “Average detailed clinical score, score” value (Day 12, 10 mg/kg) was 0.50 and the “Mean overall clinical score ± SD” value (Day 12, 10 mg/kg) was 1 ± 1. For the same compound, the Overall clinical score (Day 12, 10 mg/kg) was 1 and 0 and 2, the “Average detailed clinical score, left forelimb” value (Day 12, 30 mg/kg) was 0.00 and the “Average detailed clinical score, left hind limb” value (Day 12, 30 mg/kg) was 0.00. For the same compound, the “Average detailed clinical score, right forelimb” value (Day 12, 30 mg/kg) was 0.00, the “Average detailed clinical score, right hind limb” value (Day 12, 30 mg/kg) was 0.13 and the “Average detailed clinical score, score” value (Day 12, 30 mg/kg) was 0.13. The “Mean overall clinical score ± SD” value (Day 12, 30 mg/kg) was 0 ± 0, the “Mean animal paw volume ± SD” value (Day 13, L paw, 3 mg/kg) was 1.53 mL and the “Mean animal paw volume ± SD” value (Day 13, L paw, 10 mg/kg) was 1.52 mL. The “Mean animal paw volume ± SD” value (Day 13, L paw, 30 mg/kg) was 1.35 mL, the “Mean animal paw volume ± SD” value (Day 13, R paw, 3 mg/kg) was 1.46 mL and the “Mean animal paw volume ± SD” value (Day 13, R paw, 10 mg/kg) was 1.45 mL. For the same compound, the “Mean animal paw volume ± SD” value (Day 13, R paw, 30 mg/kg) was 1.37 mL, the “Detailed Clinical Scores, left forelimb” value (Day 13, 3 mg/kg) was 0 and the “Detailed Clinical Scores, left hind limb” value (Day 13, 3 mg/kg) was 1 (4×) and 0 (3×) and 2. The “Detailed Clinical Scores, right forelimb” value (Day 13, 3 mg/kg) was 0 (6×) and 1 (2×), the “Detailed Clinical Scores, right hind limb” value (Day 13, 3 mg/kg) was 0 (7×) and 1 and the “Detailed Clinical Scores, score” value (Day 13, 3 mg/kg) was 1 (2×) and 2 (2×) and 0 (3×) and 3. The “Detailed Clinical Scores, left forelimb” value (Day 13, 10 mg/kg) was 0, the “Detailed Clinical Scores, left hind limb” value (Day 13, 10 mg/kg) was 2 (3×) and 0 (4×) and 1 and the “Detailed Clinical Scores, right forelimb” value (Day 13, 10 mg/kg) was 0. The “Detailed Clinical Scores, right hind limb” value (Day 13, 10 mg/kg) was 1 and 0 (6×) and 2, the “Detailed Clinical Scores, score” value (Day 13, 10 mg/kg) was 3 and 0 (4×) and 4 and 2 and 1 and the “Detailed Clinical Scores, left forelimb” value (Day 13, 30 mg/kg) was 0. For the same compound, the “Detailed Clinical Scores, left hind limb” value (Day 13, 30 mg/kg) was 0, the “Detailed Clinical Scores, right forelimb” value (Day 13, 30 mg/kg) was 0 and the “Detailed Clinical Scores, right hind limb” value (Day 13, 30 mg/kg) was 1 and 0 (7×). For the same compound, the “Detailed Clinical Scores, score” value (Day 13, 30 mg/kg) was 1 and 0 (7×), the “Average detailed clinical score, left forelimb” value (Day 13, 3 mg/kg) was 0.00 and the “Average detailed clinical score, left hind limb” value (Day 13, 3 mg/kg) was 0.75. The “Average detailed clinical score, right forelimb” value (Day 13, 3 mg/kg) was 0.25, the “Average detailed clinical score, right hind limb” value (Day 13, 3 mg/kg) was 0.13 and the “Average detailed clinical score, score” value (Day 13, 3 mg/kg) was 1.13. For the same compound, the “Mean overall clinical score ± SD” value (Day 13, 3 mg/kg) was 1 ± 1, the Overall clinical score (Day 13, 3 mg/kg) was 1 (2×) and 2 (2×) and 0 (3×) and 3 and the “Average detailed clinical score, left forelimb” value (Day 13, 10 mg/kg) was 0.00. For the same compound, the “Average detailed clinical score, left hind limb” value (Day 13, 10 mg/kg) was 0.88, the “Average detailed clinical score, right forelimb” value (Day 13, 10 mg/kg) was 0.00 and the “Average detailed clinical score, right hind limb” value (Day 13, 10 mg/kg) was 0.38. For the same compound, the “Average detailed clinical score, score” value (Day 13, 10 mg/kg) was 1.25, the “Mean overall clinical score ± SD” value (Day 13, 10 mg/kg) was 1 ± 2 and the Overall clinical score (Day 13, 10 mg/kg) was 3 and 0 and 4. The “Average detailed clinical score, left forelimb” value (Day 13, 30 mg/kg) was 0.00, the “Average detailed clinical score, left hind limb” value (Day 13, 30 mg/kg) was 0.00 and the “Average detailed clinical score, right forelimb” value (Day 13, 30 mg/kg) was 0.00. For the same compound, the “Average detailed clinical score, right hind limb” value (Day 13, 30 mg/kg) was 0.13, the “Average detailed clinical score, score” value (Day 13, 30 mg/kg) was 0.13 and the “Mean overall clinical score ± SD” value (Day 13, 30 mg/kg) was 0 ± 0. For the same compound, the “Mean animal paw volume ± SD” value (Day 14, L paw, 3 mg/kg) was 1.69 mL, the “Mean animal paw volume ± SD” value (Day 14, L paw, 10 mg/kg) was 1.70 mL and the “Mean animal paw volume ± SD” value (Day 14, L paw, 30 mg/kg) was 1.35 mL. For the same compound, the “Mean animal paw volume ± SD” value (Day 14, R paw, 3 mg/kg) was 1.59 mL, the “Mean animal paw volume ± SD” value (Day 14, R paw, 10 mg/kg) was 1.59 mL and the “Mean animal paw volume ± SD” value (Day 14, R paw, 30 mg/kg) was 1.37 mL. The “Detailed Clinical Scores, left forelimb” value (Day 14, 3 mg/kg) was 0, the “Detailed Clinical Scores, left hind limb” value (Day 14, 3 mg/kg) was 1 (7×) and 3 and the “Detailed Clinical Scores, right forelimb” value (Day 14, 3 mg/kg) was 0 (6×) and 1 (2×). The “Detailed Clinical Scores, right hind limb” value (Day 14, 3 mg/kg) was 1 (2×) and 0 (4×) and 2 and 3, the “Detailed Clinical Scores, score” value (Day 14, 3 mg/kg) was 2 (3×) and 4 and 1 (3×) and 6 and the “Detailed Clinical Scores, left forelimb” value (Day 14, 10 mg/kg) was 0. The “Detailed Clinical Scores, left hind limb” value (Day 14, 10 mg/kg) was 3 (3×) and 4 and 0 (4×), the “Detailed Clinical Scores, right forelimb” value (Day 14, 10 mg/kg) was 0 and the “Detailed Clinical Scores, right hind limb” value (Day 14, 10 mg/kg) was 1 (3×) and 3 and 0 (4×). For the same compound, the “Detailed Clinical Scores, score” value (Day 14, 10 mg/kg) was 4 (2×) and 6 and 5 and 0 (4×), the “Detailed Clinical Scores, left forelimb” value (Day 14, 30 mg/kg) was 0 and the “Detailed Clinical Scores, left hind limb” value (Day 14, 30 mg/kg) was 0. For the same compound, the “Detailed Clinical Scores, right forelimb” value (Day 14, 30 mg/kg) was 0, the “Detailed Clinical Scores, right hind limb” value (Day 14, 30 mg/kg) was 1 and 0 (7×) and the “Detailed Clinical Scores, score” value (Day 14, 30 mg/kg) was 1 and 0 (7×). The “Average detailed clinical score, left forelimb” value (Day 14, 3 mg/kg) was 0.00, the “Average detailed clinical score, left hind limb” value (Day 14, 3 mg/kg) was 1.25 and the “Average detailed clinical score, right forelimb” value (Day 14, 3 mg/kg) was 0.25. For the same compound, the “Average detailed clinical score, right hind limb” value (Day 14, 3 mg/kg) was 0.88, the “Average detailed clinical score, score” value (Day 14, 3 mg/kg) was 2.38 and the “Mean overall clinical score ± SD” value (Day 14, 3 mg/kg) was 2 ± 2. The Overall clinical score (Day 14, 3 mg/kg) was 2 (3×) and 4 and 1 (3×) and 6, the “Average detailed clinical score, left forelimb” value (Day 14, 10 mg/kg) was 0.00 and the “Average detailed clinical score, left hind limb” value (Day 14, 10 mg/kg) was 1.63. For the same compound, the “Average detailed clinical score, right forelimb” value (Day 14, 10 mg/kg) was 0.00, the “Average detailed clinical score, right hind limb” value (Day 14, 10 mg/kg) was 0.75 and the “Average detailed clinical score, score” value (Day 14, 10 mg/kg) was 2.38. For the same compound, the “Mean overall clinical score ± SD” value (Day 14, 10 mg/kg) was 2 ± 3, the Overall clinical score (Day 14, 10 mg/kg) was 4 (2×) and 6 and the “Average detailed clinical score, left forelimb” value (Day 14, 30 mg/kg) was 0.00. The “Average detailed clinical score, left hind limb” value (Day 14, 30 mg/kg) was 0.00, the “Average detailed clinical score, right forelimb” value (Day 14, 30 mg/kg) was 0.00 and the “Average detailed clinical score, right hind limb” value (Day 14, 30 mg/kg) was 0.13. The “Average detailed clinical score, score” value (Day 14, 30 mg/kg) was 0.13, the “Mean overall clinical score ± SD” value (Day 14, 30 mg/kg) was 0 ± 0 and the “Mean animal paw volume ± SD” value (Day 15, L paw, 3 mg/kg) was 1.86 mL. The “Animal paw volume percent change” value (Day 15, L paw, 3 mg/kg) was 31.80% and 28.90% and 44.87% and 22.68% and 86.59% and 50.55% and 30.34%, the “Mean animal paw volume ± SD” value (Day 15, L paw, 10 mg/kg) was 1.83 mL and the “Animal paw volume percent change” value (Day 15, L paw, 10 mg/kg) was 53.43% and 36.90% and 80.93% and 93.39% and 7.66% and 22.69%. For the same compound, the “Mean animal paw volume ± SD” value (Day 15, L paw, 30 mg/kg) was 1.45 mL, the “Mean animal paw volume ± SD” value (Day 15, R paw, 3 mg/kg) was 1.92 mL and the “Animal paw volume percent change” value (Day 15, R paw, 3 mg/kg) was 25.86% and 20.97% and 74.62% and 27.24% and 84.29% and 50.19% and 48.69%. The “Mean animal paw volume ± SD” value (Day 15, R paw, 10 mg/kg) was 1.75 mL, the “Animal paw volume percent change” value (Day 15, R paw, 10 mg/kg) was 37.01% and 45.42% and 94.98% and 47.10% and 6.18% and 10.73% and the “Mean animal paw volume ± SD” value (Day 15, R paw, 30 mg/kg) was 1.48 mL. The “Detailed Clinical Scores: left forelimb” value (Day 15, 3 mg/kg) was 0, the “Detailed Clinical Scores: left hind limb” value (Day 15, 3 mg/kg) was 1 (3×) and 2 (3×) and 4 and 3 and the “Detailed Clinical Scores: right forelimb” value (Day 15, 3 mg/kg) was 0 (6×) and 1 (2×). The “Detailed Clinical Scores: right hind limb” value (Day 15, 3 mg/kg) was 1 (3×) and 3 (2×) and 2 (2×) and 4, the “Detailed Clinical Scores: score” value (Day 15, 3 mg/kg) was 2 and 3 (3×) and 6 (2×) and 8 and 4 and the “Detailed Clinical Scores: left forelimb” value (Day 15, 10 mg/kg) was 0. The “Detailed Clinical Scores: left hind limb” value (Day 15, 10 mg/kg) was 3 (2×) and 2 and 4 and 0 (2×) and 1 (2×), the “Detailed Clinical Scores: right forelimb” value (Day 15, 10 mg/kg) was 0 and the “Detailed Clinical Scores: right hind limb” value (Day 15, 10 mg/kg) was 2 (3×) and 4 and 0 (2×) and 1 (2×). For the same compound, the “Detailed Clinical Scores: score” value (Day 15, 10 mg/kg) was 5 and 4 and 7 and 6 and 0 and 1 (2×) and 2, the “Detailed Clinical Scores: left forelimb” value (Day 15, 30 mg/kg) was 0 and the “Detailed Clinical Scores: left hind limb” value (Day 15, 30 mg/kg) was 0 (6×) and 2 and 1. For the same compound, the “Detailed Clinical Scores: right forelimb” value (Day 15, 30 mg/kg) was 0, the “Detailed Clinical Scores: right hind limb” value (Day 15, 30 mg/kg) was 1 (2×) and 0 (5×) and 2 and the “Detailed Clinical Scores: score” value (Day 15, 30 mg/kg) was 1 and 2 (3×) and 0 (4×). The “Average detailed clinical score, left forelimb” value (Day 15, 3 mg/kg) was 0.00.
